Measured values taken from US20250144069A1, “BILOBALIDE DERIVATIVE COMPOUNDS FOR TREATING NEUROLOGICAL DISEASES AND CANCERS” (The Chinese University of Hong Kong, priority 2023, published 2025).

What was measured:
[1] = system: A549 cells; experiment: Dose-dependent CCK8 viability assay; type: cell-based, human
Method: (§1) In this example, dose-dependent CCK8 Viability assay was performed to determine the IC50 (the concentration of compound to achieve 50% viability) of several of the hit compounds identified from Example 2. A variety of cell lines were used: • Jurkat cells: Human leukemia • A549 cells: Human NSCLC • KP-1 cells: Mouse NSCLC with KRAS and P53 mutations • MCF-7 cells: Human breast cancer
(§2) Method for Adherent Cells (A549, MCF-7 and KP-1 Cells)
(§3) 5000 cells/100 uL were seeded in 96-well plates and incubate at 37° C.+5% CO2 overnight. Media were replaced with 100 uL of compound per well in 6 replicates in a series of 2-fold dilutions. The following controls were prepared.
(§4) Blank control: 100 uL 0.1% DMSO in media with no cells per well.
(§5) Positive control: 100 uL of 10 uM 5-flurouracil per well.
(§6) Negative control: 100 uL of 0.1% DMSO in media per well.
(§7) Each 96-well plate included 1 compound in 7 concentrations and a complete set of controls (in 6 replicates).
(§8) Cells were incubated at 37° C.+5% CO2 for 46 hours. 10 uL of CCK8 solution was added to each well. Cells were incubated at 37° C.+5% CO2 for 2 hours. Absorbance at 450 nm was measured using a multiplate reader.
(§9) Viability was calculated using the equation: […]

[2] = system: NCI-60 cell line panel; experiment: NCI-60 Human Tumor Cell Lines Screen, one-dose screen (SRB); type: cell-based; details: 48 hours
Excerpt: In this example, the cytotoxic effect of DW192 was assess via the NCI-60 Human Tumor Cell Lines Screen, provided by the Developmental Therapeutics Program (DTP) of the National Cancer Institute (NCI) in the United States. This screening helps to identify and characterize the cytotoxic effect of compounds on 60 different human cancer cell lines, including leukemia, melanoma, and cancers of the lung, colon, brain, ovary, breast, prostate and kidneys. The screening comprised of two assays: one-dose screen and five-dose screen. In one-dose screen, 10 μM of DW192 was tested for 48 hours. In five-dose screen, four, 10-fold of ½ log serial dilutions were tested for 48 hours.
Method (Extracted from the NCI-60 Website)
Cells were seeded into 96-well plates in 100 uL at plating densities ranging from 5,000 to 40,000 cells/well depending on the doubling time of individual cell lines. Plates were incubated at 37° C.+5% CO2+95% air+100% relative humidity for 24 hours before adding compounds. Two plates of each cell line were fixed in situ with TCA, to represent a measurement of the cell population for each cell line at the time of drug addition (Tz). 100 uL of compounds in four, 10-fold of ½ log serial dilutions were added to the wells already containing 100 uL of medium. Plates were incubated at 37° C.+5% CO2+95% air+100% relative humidity for an additional 48 hours.
To terminate the assay, adherent cells were fixed in situ by the gentle addition of 50 uL of cold 50% (w/v) TCA (final concentration, 10% TCA) and incubated for 60 min at 4° C. For suspension cells, 50 uL of 80% TCA (final concentration, 16% TCA) was used.
Supernatant was discarded, and the plates were wash five times with tap water and air dried. […]
Remaining stained cells were solubilized with 10 mM trizma base. Absorbance at 515 nm was measured.
Percentage growth was calculated using the following equations:
[formula] [formula] • where Tz=absorbance at time zero, C=absorbance of control growth, Ti=absorbance of test growth in the presence of drug at the five concentration levels.

[3] = system: Jurkat cells; experiment: Dose-dependent CCK8 viability assay; type: cell-based; details: Homo sapiens, 48 hours
Method: as §1
Method for Suspension Cells (Jurkat Cells)
5000 cells/90 uL were seeded in 96-well plates. 10 uL of compound (10×) in various concentrations was added to each well in 6 replicates. The following controls were prepared.
Blank control: 10 uL 1% DMSO in media with no cells per well.
Positive control: 10 uL of 100 uM 5-flurouracil (10×) per well.
Negative control: 10 uL of 1% DMSO in media (10×) per well.
Note: Each 96-well plate can test 1 compound in 7 concentrations with a complete set of controls (in 6 replicates)
as §8
Viability was calculated using this equation: […]

[4] = Single-dose CCK-8 cell viability screening (adherent cells); type: cell-based, human; details: Homo sapiens, A549, 48 h, average of A549 and Jurkat % viability, 50 uM, 48 h
[5] = system: A549 cells; experiment: as above; type: cell-based, human; details: A549 cells, 50 uM, 48 h, CCK-8
[6] = system: MCF-7 cells; experiment: Dose-dependent CCK8 viability assay; type: cell-based; details: Homo sapiens, MCF7, 48 hours
Method: as §1, §2, §3, §4, §5, §6, §7, §8, §9

[7] = system: KP-1 cells; experiment: Dose-dependent CCK8 viability assay; type: cell-based; details: Mus musculus, 48 hours
Method: as §1, §2, §3, §4, §5, §6, §7, §8, §9

[8] = system: B16 melanoma cells; experiment: B16 melanoma allograft in C57BL/6 mice; type: in vivo; details: 40 mg/kg daily subcutaneous injections, 21 days
Method: In the example, C57BL/6 mice were subcutaneously injected with B16 melanoma cells. Tumor cells were allowed to develop for one week, after that mice were treated with daily subcutaneous injections of vehicle or DW192 (40 mg/kg) for 21 days. FIG. 12A is a plot showing the tumor growth curves.

[9] = system: Jurkat cells; experiment: Single-dose CCK-8 cell viability screening (suspension cells); type: cell-based, human; details: Jurkat cells, 50 uM

With `CC(C)(C)[C@]1(O)C[C@@H]2OC(=O)C[C@@]23C(=O)O[C@@H]2N(CC4C5CC6CC(C5)CC4C6)C(=O)[C@H](OC(=O)c4ccccc4)[C@]213` (stereo partly drawn) [DW192, (3aS,5aS,8R,8aS,9R,10aS)-6-(((1S,5R,7S)-adamantan-2-yl)methyl)-9-(tert-butyl)-9-hydroxy-2,4,7-trioxooctahydro-4H,9H-furo [3″,2″:2′,3′]cyclopenta[1′,2′:3,4]furo[2,3-b]pyrrol-8-yl benzoate] the IC50 ([1]; 48 hours) was 16.4 µM, the IC50 ([1]; Homo sapiens, A549, 48 h) was 21.9 µM and the “cytotoxic effect across the NCI-60 cell line panel” value ([2]; 10 μM) was “exhibits cytotoxic effects towards multiple cell lines of different cancer type”. It also gave a lethality ([2]; COL0205 (colon cancer), 10 μM) of 66.18%, an inhibition at 10 µM ([2]; Homo sapiens, HOP-62, HOP62 (NSCLC), read-out: growth inhibition) of 50.2% and an IC50 [3] of 21.9 µM. For the same molecule, the viability at 50 µM [4] was 48.2%, the “% Viability (50 uM, 48 h) A549” value [5] was 53.19% and the viability at 50 µM ([5]; Homo sapiens, A549, 48 h, read-out: % Viability (50 uM, 48 h) A549) was 53%. For the same molecule, the IC50 [6] was 19.6 µM, the IC50 [7] was 15.8 µM and the “tumor growth and size” value [8] was “significantly reduced the growth and size of melanoma tumors”. For the same molecule, the viability at 50 µM ([9]; Homo sapiens, Jurkat, 48 h, CCK-8, read-out: % Viability (50 uM, 48 h) Jurkat) was 43% and the “% Viability (50 uM, 48 h) Jurkat” value ([9]; CCK-8, 50 µM) was 43.26%.
